Measurements from patent US20260102387A1, “IMMUNOSUPPRESSIVE COMPOUNDS” (UNIVERSITÄT BASEL, priority 2022, published 2026).

Legend:
[1] = target: T1, BRD3 BD1 (Homo sapiens, UniProt Q15059); experiment: Bromoscan (Eurofins) binding: BRD3 BD1
T1 construct: T7 phage display (bromodomain fused to phage); purchased Eurofins (bromoscan service); host or cells: E. coli host derived from BL21, T7 phage
Procedure: (§1) Following the initial data from TPP, to further confirm the interaction of compound with BRD3, an in-vitro assay system named bromoscan (Eurofins) was employed to analyse the affinity of the (4S,7R)-configurated compound 12e against the two bromodomains of BRD3.
T7 phage strains displaying bromodomains were grown in 24-well blocks in an E. coli host derived from the BL21 strain. E. coli were grown to log-phase and infected with T7 phage from a frozen stock (multiplicity of infection=0.4) and incubated with shaking at 32° C. until lysis (90-150 minutes). The lysates were centrifuged (5,000×g) and filtered (0.2 μm) to remove cell debris. Streptavidin-coated magnetic beads were treated with biotinylated small molecule or acetylated peptide ligands for 30 minutes at room temperature to generate affinity resins for bromodomain assays. The liganded beads were blocked with excess biotin and washed with blocking buffer (SeaBlock (Pierce), 1% BSA, 0.05% Tween 20, 1 mM DTT) to remove unbound ligand and to reduce non-specific phage binding. […] Test compounds were prepared as 1000× stocks in 100% DMSO. Kds were determined using an 11-point 3-fold compound dilution series with one DMSO control point. All compounds for Kd measurements are distributed by acoustic transfer (non-contact dispensing) in 100% DMSO. […] The bromodomain concentration in the eluates was measured by qPCR. […]

[2] = tested on: human peripheral blood mononuclear cells; experiment: Mixed Lymphocyte Reaction, tritiated-thymidine uptake; format: cell-based; details: human PBMCs
Procedure: For assessment of the suppression of alloresponses by coronin 1 modulators using the MLR methodology, heparinized or EDTA treated blood or buffy coat from two healthy volunteers were enriched for […] using the standard Histopaque 1.077 gradient centrifugation methodology as detailed above. Post enrichment, one of the donors PBMCs was considered as “responders” and the other as “stimulators”. The “stimulators” were treated with mitomycin to prevent proliferation while the “responders” PBMCs were left untreated. The stimulator and responder PBMCs were washed extensively with plain RPMI and subsequently counted and seeded in 96 well plate at a density of 0.1 million cells/well each (responders plus stimulators=0.2 million cells/well) in a volume of 200 μl RPMI-1640 (Sigma) containing 1× penicillin and streptomycin (Gibco), 2 mM L-glutamine (Gibco) and 10% heat inactivated FCS (PAA) along with the vehicle (DMSO) or coronin 1 expression inhibitor at indicated concentrations. Cells were incubated in a 37° C. humidified incubator with a 5% CO2 for five days with the expression inhibitor and at the end of which 0.5 μCi of tritiated thymidine was added to all wells and further incubated for 20 h followed by harvesting on a GF/C filter and measuring the DNA-incorporated counts using a Packard instrument as a measure of immune responses (FIG. 10).

[3] = tested on: coronin 1; experiment: Western blotting of coronin 1 protein levels in RBL cells; format: cell-based, Rat; details: 2 μg/ml, RBL cells
Procedure: buffer with 0.2% SDS containing protease and phosphatase inhibitors (Roche) at 4° C., followed by protein determination (BCA, Pierce) and SDS-PAGE with equal protein amounts transferred onto nitrocellulose and probed using antibodies against the indicated proteins (actin and coronin 1) followed by HRP-labeled secondary antibodies and developed using an enhanced chemi-luminescence imager (Fuji) (FIG. 3C).

[4] = target: T2, BRD3 BD2 (Homo sapiens, UniProt Q15059); experiment: Bromoscan (Eurofins) binding: BRD3 BD2
T2 construct: T7 phage display (bromodomain fused to phage); purchased Eurofins (bromoscan service); host or cells: E. coli host derived from BL21, T7 phage
T2 sequence (Q15059 306-415 limits assumed): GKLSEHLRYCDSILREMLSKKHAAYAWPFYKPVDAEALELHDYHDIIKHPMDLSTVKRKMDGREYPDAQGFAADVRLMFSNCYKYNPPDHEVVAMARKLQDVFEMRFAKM
Procedure: as §1
T7 phage strains displaying bromodomains were grown in 24-well blocks in an E. coli host derived from the BL21 strain. E. coli were grown to log-phase and infected with T7 phage from a frozen stock (multiplicity of infection=0.4) and incubated with shaking at 32° C. until lysis (90-150 minutes). The lysates were centrifuged (5,000×g) and filtered (0.2 μm) to remove cell debris. Streptavidin-coated magnetic beads were treated with biotinylated small molecule or acetylated peptide ligands for 30 minutes at room temperature to generate affinity resins for bromodomain assays. The liganded beads were blocked with excess biotin and washed with blocking buffer (SeaBlock (Pierce), 1% BSA, 0.05% Tween 20, 1 mM DTT) to remove unbound ligand and to reduce non-specific phage binding. […] Test compounds were prepared as 1000× stocks in 100% DMSO. Kds were determined using an 11-point 3-fold compound dilution series with one DMSO control point. All compounds for Kd measurements are distributed by acoustic transfer (non-contact dispensing) in 100% DMSO. The compounds were then diluted directly into the assays such that the final concentration of DMSO was 0.09%. All reactions performed in polypropylene 384-well plates. Each was a final volume of 0.02 ml. The assay plates were incubated at room temperature with shaking for 1 hour and the affinity beads were washed with wash buffer (1×PBS, 0.05% Tween 20). The beads were then resuspended in elution buffer (1×PBS, 0.05% Tween 20, 2 μM non-biotinylated affinity ligand) and incubated at room temperature with shaking for 30 minutes. The bromodomain concentration in the eluates was measured by qPCR. The bromoscan analysis was done at Eurofins (FIG. 15).

[5] = tested on: coronin 1 promoter; experiment: EC50 analysis for coronin 1 promoter driven GFP inhibition by flow cytometry in RBL cells; format: cell-based; details: for EC50: RBL, RBL cells, 48-65 h, flow cytometry
Method in brief: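 RBL cells carrying coronin 1 promoter–GFP, mixed with CMV promoter–RFP cells, exposed to compounds 48–65 h and analyzed by flow cytometry with live/dead staining. EC50 derived from GFP inhibition, with RFP and viability as nonspecific and toxicity counter-reads; cycloheximide and DMSO as controls, relative potency normalized to a reference compound.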

[6] = tested on: RBL cells; experiment: Cell viability by live-dead staining (cytotoxicity), flow cytometry; format: cell-based, Rat; details: Rattus norvegicus, RBL, cell viability via live/dead staining, 48-65 h, read-out: EC50 Toxicity
Procedure: (§2) RBL cells expressing GFP under coronin 1 promoter and optionally with RBL cells expressing RFP under CMV promoter were mixed in equal numbers and incubated with the compounds at indicated concentrations for 48-65 h and analyzed by flow cytometry for alteration in coronin 1 promoter (GFP fluorescence), CMV promoter (RFP fluorescence) values. In addition, the cells were labelled with live-dead marker for assessing cell viability status by flow cytometry. Cycloheximide (CHX) serves as positive control and DMSO serves as negative controls. Effective Concentration (EC50) values for coronin 1 promoter inhibition via GFP fluorescence analysis, non-specific promoter inhibition via CMV promoter driven-RFP fluorescence analysis and cell viability via live/dead staining as a measure for toxicity in flow cytometry for compounds (10-22 and 50a-65a) are shown in Table 6 and Table 7. Based on the EC50 analysis of the inhibition of coronin 1 promoter driven GFP fluorescence the (4S,7R)-configurated eutomers were identified (Structures FIG. 9A-C). This is exemplified for compounds containing two stereocenters by eutomers 11c and 13a. […] Subsequent EC50 evaluations (Table 7) were performed with compound 13a as standard for relative potency normalized to a value of 1.00 (relative potency calculated as [EC50 GFP inhibition 13a]/[EC50 GFP inhibition compound of interest]).

[7] = target: T3, BRD3 (Rattus norvegicus, UniProt D3ZWU1); experiment: Thermal Proteome Profiling in RBL cells: BRD3; format: binding; details: 6 μM
T3 construct: endogenous in cells; host or cells: RBL (rat basophil leukemia) cells
T3 sequence (D3ZWU1 1-725): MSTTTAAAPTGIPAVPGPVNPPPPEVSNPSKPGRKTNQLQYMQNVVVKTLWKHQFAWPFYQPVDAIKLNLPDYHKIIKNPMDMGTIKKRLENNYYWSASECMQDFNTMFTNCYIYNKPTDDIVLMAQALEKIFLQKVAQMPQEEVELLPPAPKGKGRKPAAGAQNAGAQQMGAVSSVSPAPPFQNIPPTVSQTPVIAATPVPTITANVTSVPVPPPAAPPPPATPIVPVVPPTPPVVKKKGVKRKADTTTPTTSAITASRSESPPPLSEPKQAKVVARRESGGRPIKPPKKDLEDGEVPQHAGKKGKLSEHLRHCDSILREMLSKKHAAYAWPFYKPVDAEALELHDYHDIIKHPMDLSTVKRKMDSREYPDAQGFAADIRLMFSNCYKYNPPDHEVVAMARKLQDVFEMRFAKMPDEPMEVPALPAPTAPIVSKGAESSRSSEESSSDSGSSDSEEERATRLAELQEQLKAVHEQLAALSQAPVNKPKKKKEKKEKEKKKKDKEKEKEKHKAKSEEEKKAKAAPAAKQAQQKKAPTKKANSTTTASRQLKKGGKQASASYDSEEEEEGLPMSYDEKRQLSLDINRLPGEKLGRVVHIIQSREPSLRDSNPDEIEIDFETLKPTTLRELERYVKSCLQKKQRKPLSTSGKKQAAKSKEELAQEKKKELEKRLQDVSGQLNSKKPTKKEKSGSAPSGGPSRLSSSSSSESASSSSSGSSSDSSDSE
Procedure: To identify the target of the coronin 1 modulatory compounds, Thermal Proteome Profiling (TPP), a methodology based on the property of proteins to alter their thermal stability upon interactions with small molecules (Savitski, M. M., et al., Science, 2014. 346(6205): p. 1255784), was employed. To that end, Rat Basophil Leukemia (RBL) cells were incubated with the compound 12e followed by gradient thermal denaturation (37/41/44/47/50/53/56/59/63/67 degree C.) and mass spectrometric assessment of proteins that get either stabilized or destabilized upon interacting with the compound performed. […]
Thermal proteome profiling was performed as described (Savitski, M. M., et al., Science, 2014. 346(6205): p. 1255784). In brief, RBL cells (50 millions/condition) were incubated with the vehicle DMSO or the compound 12e at 6, 3 or 0 μM concentration for a period of 1 h at the end of which, the cells were washed in ice cold PBS, counted and subjected to thermal denaturation (37/41/44/47/50/53/56/59/63/67° C.) for 3 minutes, lysed by freeze thawing in liquid nitrogen and supernatant containing the soluble proteins separated by centrifugation at 100,000 g for 30 minutes. Equal volumes of the supernatant were taken, subjected to tryptic digestion and labelling with 10 plex-TMT (Thermo Fisher) and the labelled peptides analyzed and quantitated using mass spectrometry (FIG. 13).

[8] = tested on: BRD2, BRD3 and BRD4 proteins; details: reported TPP data; cited from earlier work
[9] = tested on: CMV promoter; experiment: EC50 analysis for CMV promoter driven RFP inhibition (non-specific activity) by flow cytometry in RBL cells; format: cell-based, cytomegalovirus; details: 48-65 h, read-out: EC50 RFP alteration
Procedure: as §2

[10] = tested on: imiquimod-induced psoriasis; experiment: Imiquimod-induced mouse model for psoriasis; format: in vivo, mice (Balb/c); details: 50 mg/kg body weight, twice daily, topical route, day 4
Procedure: Wild type mice (Balb/c strain, 8-12 weeks), were age and sex matched. The dorsal skin was shaved with a trimmer on an area of ˜2 cm^2 and subjected to topical application of 5% imiquimod cream (Aldara) starting from day 1 and continued for up to 7 days in the morning. For compound administration, mice were applied topically with the compound, twice a day starting 48 hours before the first Imiquimod application and all along of the experiment up to day 7. In the morning, compound was applied 2 h prior to the imiquimod application (FIG. 12A). Mice were scored every day for the inflammatory lesion and general health status as follows: […]

T1 sequence (Q15059 34-140 limits assumed): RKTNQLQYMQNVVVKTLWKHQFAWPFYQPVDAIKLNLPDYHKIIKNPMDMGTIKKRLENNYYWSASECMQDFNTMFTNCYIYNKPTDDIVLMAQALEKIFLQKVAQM

Row | Compound | Kd [1] [nM] | Mixed Lymphocyte Responses (tritiated-thymidine uptake) [2] | coronin 1 depletion by Western blot [3] | Kd [4] [nM] | relative affinity for BRD3 bromodomains BD1 and BD2 [4] | EC50 [5] [nM] | EC50 [6] [nM] | increase of thermal denaturation of BRD3 [7] | thermal stabilization of BRD2, BRD3 and BRD4 proteins [8] | EC50 [9] [nM] | disease score (erythema, surface area affected, psoriatic plaque formation) [10] | rel. potency GFP inhibition ([5]; [EC50 GFP inhibition 13a]/[EC50 GFP inhibition compound of interest], 13a = 1.00)
1 | COc1ccccc1[C@H]1CC(=O)C2=C(C1)NC(C)=C(C(=O)OC[C@@H]1CCCO1)[C@H]2c1cccc(O)c1 [12e, tetrahydro-2-furanylmethyl (4S, 7R)-4-(3-hydroxyphenyl)-7-(2-methoxyphenyl)-2-methyl-5-oxo-1,4,5,6,7,8-hexahydro-3-quinolinecarboxylate] | ~200 | inhibition | showed coronin 1 depletion | ~10 | higher affinity for the BD2 domain | 70 | > 20000 | over four degrees Celsius |  |  |  | 
2 | COc1cc2c(cc1-c1c(C)noc1C)ncc1[nH]c(=O)n([C@H](C)c3ccccn3)c12 [IBET-151] |  |  |  |  |  |  |  |  | thermal stabilization |  |  | 
3 | CC(=O)Nc1c(F)cc(C(=O)N[C@H]2CC[C@H](O)CC2)cc1O[C@@H](C)c1ccccc1 [IBET-BD2] |  |  |  |  |  |  |  |  | thermal stabilization |  |  | 
4 | COc1ccccc1[C@H]1CC(=O)C2=C(C1)NC(C)=C(C(=O)OC1CCOCC1)[C@H]2c1cccc(O)c1 [13a, tetrahydro-2H-pyran-4-yl (4S, 7R)-4-(3-hydroxyphenyl)-7-(2-methoxyphenyl)-2-methyl-5-oxo-1,4,5,6,7,8-hexahydro-3-quinolinecarboxylate] | 150 |  | showed coronin 1 depletion | 4 | higher affinity for the BD2 domain | 65 | > 2500 |  |  | > 2500 | suppresses autoimmune-inflammatory disease severity | 1.00
